# Assay results as given in the supplement of paper PMC10307832.
# Legend:
# Experiment in all cases: relative viability (nuclei count vs DMSO), 5 days (fraction); higher = more cells survive
# Calu-6 = tested on: Calu-6
# Outline: (§1)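 Values are medians from duplicate plates. Each reflects relative viability, defined as the nuclei count of treated wells over that of vehicle wells. Lung cancer cell lines in 1536-well plates were pin-tool dosed one day after seeding with one drug alone or with a fixed anchor-drug dose plus five library-drug doses (not always all listed) in √10 steps, then fixed, stained and imaged at 4× after 5 days.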
# IA-LM = tested on: IA-LM
# Outline: as §1
# NCI-H1703 = tested on: NCI-H1703
# Outline: as §1
# EBC-1 = tested on: EBC-1
# Outline: as §1
# NCI-H1437 = tested on: NCI-H1437
# Outline: as §1
# NCI-H1355 = tested on: NCI-H1355
# Outline: as §1
# LCLC-97TM1 = tested on: LCLC-97TM1
# Outline: as §1
# A549 = tested on: A549
# Outline: as §1
# NCI-H1299 = tested on: NCI-H1299
# Outline: as §1
# NCI-H596 = tested on: NCI-H596
# Outline: as §1
smiles,measurement,setting,value
CN1CCN(CCOc2cc(OC3CCOCC3)c3c(Nc4c(Cl)ccc5c4OCO5)ncnc3c2)CC1 [Saracatinib] + CC1(C)CCC(c2ccc(Cl)cc2)=C(CN2CCN(c3ccc(C(=O)NS(=O)(=O)c4ccc(N[C@H](CCN5CCOCC5)CSc5ccccc5)c(S(=O)(=O)C(F)(F)F)c4)cc3)CC2)C1 [Navitoclax] (partner 0.5 µM),relative viability,Calu-6; first compound 0.02 µM,0.914
same,relative viability,Calu-6; first compound 0.2 µM,0.746
same,relative viability,Calu-6; first compound 0.6325 µM,0.731
same,relative viability,Calu-6; first compound 2 µM,0.562
same,relative viability,IA-LM; first compound 0.02 µM,0.865
same,relative viability,IA-LM; first compound 0.6325 µM,1.45
same,relative viability,IA-LM; first compound 2 µM,1
same,relative viability,NCI-H1703; first compound 0.02 µM,1.09
same,relative viability,NCI-H1703; first compound 0.2 µM,0.904
same,relative viability,NCI-H1703; first compound 0.6325 µM,0.43
same,relative viability,NCI-H1703; first compound 2 µM,0.269
same,relative viability,EBC-1; first compound 0.02 µM,0.542
same,relative viability,EBC-1; first compound 0.2 µM,0.408
same,relative viability,EBC-1; first compound 0.6325 µM,0.393
same,relative viability,EBC-1; first compound 2 µM,0.43
same,relative viability,NCI-H1437; first compound 0.02 µM,1.11
same,relative viability,NCI-H1437; first compound 0.2 µM,1.12
same,relative viability,NCI-H1437; first compound 0.6325 µM,1.11
same,relative viability,NCI-H1437; first compound 2 µM,1.03
same,relative viability,NCI-H1355; first compound 0.02 µM,0.988
same,relative viability,NCI-H1355; first compound 0.2 µM,0.895
same,relative viability,NCI-H1355; first compound 0.6325 µM,0.928
same,relative viability,NCI-H1355; first compound 2 µM,0.901
same,relative viability,LCLC-97TM1; first compound 0.02 µM,0.422
same,relative viability,LCLC-97TM1; first compound 0.2 µM,0.356
same,relative viability,LCLC-97TM1; first compound 0.6325 µM,0.501
same,relative viability,LCLC-97TM1; first compound 2 µM,0.46
same,relative viability,A549; first compound 0.02 µM,1.42
same,relative viability,A549; first compound 0.2 µM,0.903
same,relative viability,A549; first compound 0.6325 µM,1.39
same,relative viability,A549; first compound 2 µM,1.38
same,relative viability,NCI-H1299; first compound 0.02 µM,1.01
same,relative viability,NCI-H1299; first compound 0.2 µM,1.06
same,relative viability,NCI-H1299; first compound 0.6325 µM,1.04
same,relative viability,NCI-H1299; first compound 2 µM,1.04
same,relative viability,NCI-H596; first compound 0.02 µM,0.952
same,relative viability,NCI-H596; first compound 0.2 µM,0.711
same,relative viability,NCI-H596; first compound 0.6325 µM,0.925
same,relative viability,NCI-H596; first compound 2 µM,0.682
CCNC(=O)c1noc(-c2cc(C(C)C)c(O)cc2O)c1-c1ccc(CN2CCOCC2)cc1 [Luminespib] + CC(C)C[C@H](NC(=O)[C@H](Cc1ccccc1)NC(=O)c1cnccn1)B(O)O [Bortezomib] (partner 0.002 µM),relative viability,Calu-6; first compound 0.002 µM,1.06
same,relative viability,Calu-6; first compound 0.006325 µM,0.883
same,relative viability,Calu-6; first compound 0.02 µM,1.21
same,relative viability,Calu-6; first compound 0.06325 µM,0.141
same,relative viability,Calu-6; first compound 0.2 µM,0.159
same,relative viability,IA-LM; first compound 0.002 µM,0.819
same,relative viability,IA-LM; first compound 0.006325 µM,0.951
same,relative viability,IA-LM; first compound 0.02 µM,0.648
same,relative viability,IA-LM; first compound 0.06325 µM,0.067
same,relative viability,IA-LM; first compound 0.2 µM,0.0656
same,relative viability,NCI-H1703; first compound 0.002 µM,0.494
same,relative viability,NCI-H1703; first compound 0.006325 µM,0.415
same,relative viability,NCI-H1703; first compound 0.02 µM,0.224
same,relative viability,NCI-H1703; first compound 0.06325 µM,0.13
same,relative viability,NCI-H1703; first compound 0.2 µM,0.14
same,relative viability,EBC-1; first compound 0.002 µM,0.583
same,relative viability,EBC-1; first compound 0.006325 µM,0.541
same,relative viability,EBC-1; first compound 0.02 µM,0.318
same,relative viability,EBC-1; first compound 0.06325 µM,0.118
same,relative viability,EBC-1; first compound 0.2 µM,0.169
same,relative viability,NCI-H1437; first compound 0.002 µM,0.511
same,relative viability,NCI-H1437; first compound 0.006325 µM,0.38
same,relative viability,NCI-H1437; first compound 0.02 µM,0.431
same,relative viability,NCI-H1437; first compound 0.06325 µM,0.247
same,relative viability,NCI-H1437; first compound 0.2 µM,0.0895
same,relative viability,NCI-H1355; first compound 0.002 µM,1.14
same,relative viability,NCI-H1355; first compound 0.006325 µM,1.12
same,relative viability,NCI-H1355; first compound 0.02 µM,0.571
same,relative viability,NCI-H1355; first compound 0.06325 µM,1
same,relative viability,NCI-H1355; first compound 0.2 µM,0.182
same,relative viability,LCLC-97TM1; first compound 0.002 µM,0.876
same,relative viability,LCLC-97TM1; first compound 0.006325 µM,0.635
same,relative viability,LCLC-97TM1; first compound 0.02 µM,0.638
same,relative viability,LCLC-97TM1; first compound 0.06325 µM,0.0526
same,relative viability,LCLC-97TM1; first compound 0.2 µM,0.0579
same,relative viability,NCI-H1299; first compound 0.002 µM,1.01
same,relative viability,NCI-H1299; first compound 0.006325 µM,0.999
same,relative viability,NCI-H1299; first compound 0.02 µM,1.04
same,relative viability,NCI-H1299; first compound 0.06325 µM,0.946
same,relative viability,NCI-H1299; first compound 0.2 µM,0.248
same,relative viability,NCI-H596; first compound 0.002 µM,1.03
same,relative viability,NCI-H596; first compound 0.006325 µM,0.915
same,relative viability,NCI-H596; first compound 0.06325 µM,1.07
same,relative viability,NCI-H596; first compound 0.2 µM,0.999
CCNC(=O)c1noc(-c2cc(C(C)C)c(O)cc2O)c1-c1ccc(CN2CCOCC2)cc1 [Luminespib] + C[C@]1(O)C[C@@H](c2nc(-c3ccc4ccc(-c5ccccc5)nc4c3)c3c(N)nccn32)C1 [Linsitinib] (partner 1 µM),relative viability,Calu-6; first compound 0.002 µM,1.08
same,relative viability,Calu-6; first compound 0.006325 µM,0.783
same,relative viability,Calu-6; first compound 0.02 µM,0.712
same,relative viability,Calu-6; first compound 0.06325 µM,0.0985
same,relative viability,Calu-6; first compound 0.2 µM,0.0978
same,relative viability,IA-LM; first compound 0.002 µM,0.601
same,relative viability,IA-LM; first compound 0.006325 µM,0.424
same,relative viability,IA-LM; first compound 0.02 µM,0.284
same,relative viability,IA-LM; first compound 0.06325 µM,0.0358
same,relative viability,IA-LM; first compound 0.2 µM,0.0299
same,relative viability,NCI-H1703; first compound 0.002 µM,1.26
same,relative viability,NCI-H1703; first compound 0.006325 µM,0.448
same,relative viability,NCI-H1703; first compound 0.02 µM,0.426
same,relative viability,NCI-H1703; first compound 0.06325 µM,0.0721
same,relative viability,NCI-H1703; first compound 0.2 µM,0.123
same,relative viability,EBC-1; first compound 0.002 µM,0.919
same,relative viability,EBC-1; first compound 0.006325 µM,0.89
same,relative viability,EBC-1; first compound 0.02 µM,0.273
same,relative viability,EBC-1; first compound 0.06325 µM,0.0912
same,relative viability,EBC-1; first compound 0.2 µM,0.0942
same,relative viability,NCI-H1437; first compound 0.002 µM,1.06
same,relative viability,NCI-H1437; first compound 0.006325 µM,0.989
same,relative viability,NCI-H1437; first compound 0.02 µM,1.08
same,relative viability,NCI-H1437; first compound 0.06325 µM,0.22
same,relative viability,NCI-H1437; first compound 0.2 µM,0.0998
same,relative viability,NCI-H1355; first compound 0.002 µM,0.903
same,relative viability,NCI-H1355; first compound 0.006325 µM,0.785
same,relative viability,NCI-H1355; first compound 0.02 µM,0.425
same,relative viability,NCI-H1355; first compound 0.06325 µM,0.763
same,relative viability,NCI-H1355; first compound 0.2 µM,0.81
same,relative viability,LCLC-97TM1; first compound 0.002 µM,0.213
same,relative viability,LCLC-97TM1; first compound 0.006325 µM,0.199
same,relative viability,LCLC-97TM1; first compound 0.02 µM,0.154
same,relative viability,LCLC-97TM1; first compound 0.06325 µM,0.174
same,relative viability,LCLC-97TM1; first compound 0.2 µM,0.192
same,relative viability,A549; first compound 0.002 µM,0.645
same,relative viability,A549; first compound 0.006325 µM,0.583
same,relative viability,A549; first compound 0.02 µM,0.236
same,relative viability,A549; first compound 0.06325 µM,0.14
same,relative viability,A549; first compound 0.2 µM,0.0621
same,relative viability,NCI-H1299; first compound 0.002 µM,0.978
same,relative viability,NCI-H1299; first compound 0.006325 µM,0.935
same,relative viability,NCI-H1299; first compound 0.02 µM,0.989
same,relative viability,NCI-H1299; first compound 0.06325 µM,0.582
same,relative viability,NCI-H1299; first compound 0.2 µM,0.451
same,relative viability,NCI-H596; first compound 0.002 µM,1.06
same,relative viability,NCI-H596; first compound 0.006325 µM,0.995
same,relative viability,NCI-H596; first compound 0.06325 µM,1.06
same,relative viability,NCI-H596; first compound 0.2 µM,0.907
